Assays:
SH-SY5Y cells [1] = format: cell-based
SH-SY5Y cells [2] = format: cell-based; remark: listed apart in the source
SH-SY5Y cells [3] = system: SH-SY5Y cells
SH-SY5Y cells [4] = format: cell-based; remark: listed apart in the source

O[C@H]1[C@H](O)[C@@H](O)[C@@H]2O[C@@H]2[C@@H]1O (racemic) [CBE, Conduritol B Epoxide]
concentration of GlcCer of various side chains in cells (SH-SY5Y cells [1]): much higher | immunofluorescence intensity of Lyso-tracker (SH-SY5Y cells [2]): increased significantly | number of Lyso-tracker labeled positive cells (SH-SY5Y cells [2]): significantly increased | cell viability (SH-SY5Y cells [3]): significantly inhibited

COc1ncc(-c2ccc3nc(N)n(-c4ccc(N5CCOCC5)cc4)c3c2)cc1S(=O)(=O)Nc1ccccc1F [A1, 5-(2-amino-1-(4-(4-morpholinyl)phenyl)-1H-benzimidazol-6-yl)-N-(2-fluorophenyl)-2-methoxy-3-pyridinesulfonamide]
Lyso-tracker labeled positive cells (SH-SY5Y cells [2]): fewer Lyso-tracker labeled positive cells

CO/C1=C\C(C)=C\[C@@H](C)[C@@H](O)[C@@H](C)C/C(C)=C/C=C/[C@H](OC)[C@@H]([C@@H](C)[C@@H](O)[C@H](C)[C@@]2(O)C[C@@H](O)[C@H](C)[C@@H](C(C)C)O2)OC1=O [Baf-A1, Bafilomycin A1]
cell viability (SH-SY5Y cells [3]): not significantly different | effect on the protection by PAO (cell viability) (SH-SY5Y cells [3]): decreased the protection effect of PAO

CCN(CC)CCO[C@H]1CC[C@@]2(C)C(=CC[C@@H]3[C@@H]2CC[C@]2(C)C(=O)CC[C@@H]32)C1 [U18666A]
Filipin staining fluorescence intensity (SH-SY5Y cells [4]): enhanced
